Experiments:
Galectin-1 = Galectin-1 (Homo sapiens, UniProt P09382); test: Inhibitory Activity Assay
Procedure: (§1) Briefly, compounds are serially diluted in DMSO (working dilutions). ASF-coated 384well plates are supplemented with 22.8 μL/well of biotinylated hGal-3 or hGal-1 in assay buffer (i.e. 300-1000 ng/mL biotinylated hGal-3 or hGal-1) to which 1.2 μL of compound working dilutions are added and mixed. Plates are incubated for 3 hours at 4° C., then washed with cold assay buffer (3×50 uL), incubated for 1 hour with 25 μL/well of a streptavidin-peroxidase solution (diluted in assay buffer to 80 ng/mL) at 4° C., followed by further washing steps with assay buffer (3×50 uL). Finally, 25 μL/well of ABTS substrate is added.

Galectin-3 = Galectin-3 (Homo sapiens, UniProt P17931); test: Inhibitory Activity Assay
Chain of Galectin-3 (P17931 whole entry): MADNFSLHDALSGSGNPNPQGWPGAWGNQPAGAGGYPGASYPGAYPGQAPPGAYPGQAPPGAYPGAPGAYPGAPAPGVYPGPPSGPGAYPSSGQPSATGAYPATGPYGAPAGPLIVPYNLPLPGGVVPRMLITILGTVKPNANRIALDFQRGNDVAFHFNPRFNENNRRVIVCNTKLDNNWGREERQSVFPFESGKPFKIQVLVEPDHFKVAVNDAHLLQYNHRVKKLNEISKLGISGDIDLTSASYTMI
Procedure: as §1

Chain of Galectin-1 (P09382 whole entry): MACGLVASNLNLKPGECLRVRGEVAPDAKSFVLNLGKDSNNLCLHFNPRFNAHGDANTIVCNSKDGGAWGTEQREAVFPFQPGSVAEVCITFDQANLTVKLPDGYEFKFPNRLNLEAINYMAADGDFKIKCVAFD

| SMILES | IC50 (Galectin-1) | IC50 (Galectin-3) |
| --- | --- | --- |
| COC(=O)C(C)(C)n1cc(C[C@H]2OC(CO)=C(O)C(N3C[C@H](c4ccc(Cl)c(F)c4F)NN3)=C2OC)nn1 [US20240109930, Example 2.1.10.] | 2260 nM | 60 nM |
| CCC1(c2cn(C[C@H]3O[C@H](CO)[C@H](O)[C@H](n4cc(-c5ccc(Cl)c(F)c5F)nn4)[C@H]3OC)nn2)COC1 [US20240109930, Example 2.2.38.] | 1400 nM | 30 nM |
| CO[C@@H]1[C@@H](n2cc(-c3ccc(Cl)c(F)c3F)nn2)[C@@H](O)[C@@H](CO)O[C@@H]1Cc1cn([C@@H]2CC[C@H]2F)nn1 [US20240109930, Example 2.1.88.C] | – | 50 nM |
| COC(=O)C(C)(C)n1cc(C[C@H]2OC(CO)=C(O)C(N3C[C@H](c4ccc(C)c(F)c4F)NN3)=C2OC)nn1 [US20240109930, Example 1.1.10.] | 4370 nM | 60 nM |

Further compounds by falling IC50 (Galectin-3), results first:

| IC50 (Galectin-1) | IC50 (Galectin-3) | SMILES |
| --- | --- | --- |
| 2570 nM | 60 nM | CO[C@@H]1[C@@H](n2cc(-c3ccc(Cl)c(F)c3F)nn2)[C@@H](O)[C@@H](CO)O[C@@H]1Cn1cc([C@H]2C[C@@H](NC(=O)OC(C)(C)C)C2)nn1 [US20240109930, Example 2.2.86.] |
| 2300 nM | 60 nM | CO[C@@H]1[C@@H](n2cc(-c3ccc(Cl)c(F)c3F)nn2)[C@@H](O)[C@@H](CO)O[C@@H]1Cn1cc(C2(CF)CC2)nn1 [US20240109930, Example 2.2.46.] |
| – | 30 nM | CO[C@@H]1[C@@H](n2cc(-c3ccc(Cl)c(F)c3F)nn2)[C@@H](O)[C@@H](CO)O[C@@H]1Cc1cn(C2COCCC2(F)F)nn1 (some centres undefined) [US20240109930, Example 2.1.73.A] |
| 1320 nM | 30 nM | COC1=C(n2cc(-c3ccc(C#N)c(F)c3F)nn2)C(O)=C(CO)O[C@@H]1C[C@H]1CN(C2(C(F)F)CCC2)NN1 [US20240109930, Example 5.1.43.] |

Reference: BindingDB's records for patent US20240109930 (Idorsia Pharmaceuticals, 2024)
